Where a name gives a salt, the structure may show the parent alone.

By IC50 is commonly meant the concentration that inhibits the measured activity by half.

Assay [1] relates to mouse heterotopic cardiac transplant (BALB/c->C57BL/6 or B6/129). The assay can be described thus: Mouse heterotopic cardiac transplant model. The class given is in vivo. As to conditions: oral administration, 25 mg/kg/day for 14 days, starting at transplantation. An excerpt: In the mouse heterotopic cardiac transplant model across full histocompatibility barriers (BALB/c->C57BL/6 or B6/129), graft survival is typically limited to 7.3 ± 0.4 days (mean ± SD, […]) (see for example in Hancock WW, Sayegh MH, Zheng XG, Peach R, Linsley PS, Turka LA. Costimulatory function and expression of CD40-ligand, CD80 and CD86 or in vascularized murine cardiac allograft rejection. Proc Natl Acad Sci (USA) 93, 1996, 13967-13972; and Hancock W W, Buelow R, Sayegh MH, Turka LA. Antibody-induced transplant arteriosclerosis is prevented by graft expression of antioxidant and anti-apoptotic genes. Nature Med 4, 1998, 1392-1396).
The effects of oral administration of the compounds according to examples 49 and 60 were tested using 25 mg/kg/day for 14 days, starting at transplantation in said animal model. Whereas grafts in animals receiving the carrier, methylcellulose, rejected by 7 days (6.7 ± 0.8), grafts in compound 49-treated mice survived around 15 days (15.3 ± 0.6), and grafts in those given compound 60 survived for 20 days (20 ± 1). Current immunosuppressive therapies used in transplantation have limited efficacy and/or considerable toxicity.

For the next assay, the target named is T1, IκBα-kinase complex (Homo sapiens, UniProt O14920+O15111).
T1 construct: IKBα kinase complex was prepared by first diluting 10 mL of HeLa S3 cell-extracts S100 fraction; endogenous in cells; host or cells: HeLa S3 (S100 fraction, 40% ammonium sulfate cut, Superose-6 fractions at about 670 kDa)
T1 sequence (O14920 whole entry): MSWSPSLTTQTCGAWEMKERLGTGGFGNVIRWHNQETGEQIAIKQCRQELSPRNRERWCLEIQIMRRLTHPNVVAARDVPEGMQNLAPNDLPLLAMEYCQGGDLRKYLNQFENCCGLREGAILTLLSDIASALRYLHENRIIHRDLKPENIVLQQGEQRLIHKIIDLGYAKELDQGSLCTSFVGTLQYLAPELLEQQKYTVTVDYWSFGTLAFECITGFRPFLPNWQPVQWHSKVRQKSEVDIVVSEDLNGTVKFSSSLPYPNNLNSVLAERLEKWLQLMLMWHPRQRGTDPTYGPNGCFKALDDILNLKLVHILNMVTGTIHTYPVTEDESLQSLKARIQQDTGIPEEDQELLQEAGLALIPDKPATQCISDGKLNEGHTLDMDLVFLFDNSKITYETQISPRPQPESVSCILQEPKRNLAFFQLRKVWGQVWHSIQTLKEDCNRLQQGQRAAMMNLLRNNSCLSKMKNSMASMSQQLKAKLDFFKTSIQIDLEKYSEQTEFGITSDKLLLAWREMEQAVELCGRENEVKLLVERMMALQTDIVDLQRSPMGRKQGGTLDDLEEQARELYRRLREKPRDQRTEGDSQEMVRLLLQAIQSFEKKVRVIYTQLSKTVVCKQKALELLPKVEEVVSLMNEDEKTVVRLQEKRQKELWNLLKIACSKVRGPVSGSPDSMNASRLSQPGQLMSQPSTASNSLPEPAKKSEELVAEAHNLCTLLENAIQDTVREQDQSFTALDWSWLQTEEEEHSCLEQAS
T1 sequence (O15111 whole entry): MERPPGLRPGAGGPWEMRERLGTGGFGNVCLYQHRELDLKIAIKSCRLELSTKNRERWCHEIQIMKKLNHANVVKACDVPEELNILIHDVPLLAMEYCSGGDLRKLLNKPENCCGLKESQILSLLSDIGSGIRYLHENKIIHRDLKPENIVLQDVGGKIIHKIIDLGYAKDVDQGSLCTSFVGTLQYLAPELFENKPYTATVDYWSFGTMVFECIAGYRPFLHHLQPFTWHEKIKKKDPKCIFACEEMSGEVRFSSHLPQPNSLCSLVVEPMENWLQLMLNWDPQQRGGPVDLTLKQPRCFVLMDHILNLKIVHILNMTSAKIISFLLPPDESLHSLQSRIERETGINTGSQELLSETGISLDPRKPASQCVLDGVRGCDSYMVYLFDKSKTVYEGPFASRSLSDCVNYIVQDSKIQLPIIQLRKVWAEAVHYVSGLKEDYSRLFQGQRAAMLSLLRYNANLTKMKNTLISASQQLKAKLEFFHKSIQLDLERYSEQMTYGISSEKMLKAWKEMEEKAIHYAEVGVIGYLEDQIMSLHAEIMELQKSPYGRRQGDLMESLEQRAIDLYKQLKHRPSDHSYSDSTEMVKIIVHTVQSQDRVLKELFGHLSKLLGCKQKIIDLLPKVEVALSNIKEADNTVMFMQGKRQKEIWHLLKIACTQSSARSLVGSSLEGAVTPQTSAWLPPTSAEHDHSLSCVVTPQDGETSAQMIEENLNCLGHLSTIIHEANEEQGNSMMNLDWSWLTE
T1 sequence (Q9Y6K9 whole entry partner): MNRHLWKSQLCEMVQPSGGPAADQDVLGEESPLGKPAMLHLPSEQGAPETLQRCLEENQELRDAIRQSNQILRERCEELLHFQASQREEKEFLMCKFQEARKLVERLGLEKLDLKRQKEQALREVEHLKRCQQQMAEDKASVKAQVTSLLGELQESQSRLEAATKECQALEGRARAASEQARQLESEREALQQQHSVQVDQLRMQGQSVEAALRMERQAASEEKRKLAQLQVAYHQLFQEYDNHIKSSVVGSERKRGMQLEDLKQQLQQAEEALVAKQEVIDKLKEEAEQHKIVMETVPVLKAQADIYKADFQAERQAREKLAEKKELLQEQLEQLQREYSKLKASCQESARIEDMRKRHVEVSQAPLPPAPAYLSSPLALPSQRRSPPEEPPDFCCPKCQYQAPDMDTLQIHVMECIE
Kind of assay: biochemical. Conditions: activated kinase complex from HeLa S3 cell-extracts S100 fraction; 30 minutes pre-incubation at 25°C; biotinylated peptide substrate; read-out: IkB-kinase IC50.

“7-chloro-9-(4-fluorobenzoylamino)-β-carboline trifluoroacetate [Example 49]” yielded a graft survival in assay [1] of 15.3 ± 0.6 days.

For “7-chloro-9-(Acetyl-methylamino)-β-carboline trifluoroacetate [Example 48]”, the IC50 at IκBα-kinase complex was determined as 4000 nM. On to “7-chloro-9-(methylamino)-β-carboline trifluoroacetate [Example 43]”, for which the half-inhibitory concentration (IC50) on IκBα-kinase complex came out at 1000 nM.

As for `CC(=O)c1nccc2c1[nH]c1cc(Br)ccc12` [Example 2, 1-acetyl-7-bromo-β-carboline], the IC50 at IκBα-kinase complex is 400 nM. In the case of `Fc1ccc2c(c1)[nH]c1cnccc12` [Example 3, 7-fluoro-β-carboline], the IC50 at IκBα-kinase complex was found to be 1000 nM. On the same count and under the same terms, in the case of `CC(C)c1ccc2c(c1)[nH]c1cnccc12` [Example 4, 7-isopropyl-β -carboline hydrochloride] it was 2500 nM; in that of `N#Cc1ccc2c(c1)[nH]c1cnccc12` [Example 5, 7-cyano-β-carboline], 1000 nM.

As to `O=[N+]([O-])c1ccc2c(c1)[nH]c1cnccc12` [Example 6, 7-nitro-β-carboline hydrochloride], the half-maximal inhibitory concentration (IC50) at IκBα-kinase complex worked out at 3000 nM.

In the case of `O=C(O)c1ccc2c(c1)[nH]c1cnccc12` [Example 7, 7-carboxy-β-carboline trifluoroacetat], the concentration for half-maximal inhibition (IC50) at IκBα-kinase complex came out at 65000 nM.

As for `Brc1ccc2c3ccncc3n(Br)c2c1` [Example 8, 7,9-dibromo-β - carboline hydrochloride], the IC50 on IκBα-kinase complex was found to be 200 nM. On the same count and under the same terms, in the case of `Clc1ccc2c3ccncc3n(Cl)c2c1` [Example 9, 7,9-dichloro-β-carboline] it was 200 nM; in that of `CC(=O)c1nccc2c1[nH]c1cc(Cl)ccc12` [Example 13, 1-acetyl-7-chloro-β - carboline], 500 nM. As to `O=[N+]([O-])n1c2cnccc2c2ccc(Cl)cc21` [Example 14, 7-chloro-9-nitro-β-carboline], the IC50 at IκBα-kinase complex came to 4000 nM. Same read-out and setting: in the case of `Nn1c2cnccc2c2ccc(Cl)cc21` [Example 15, 9-amino-7-chloro-β-carboline] it was 800 nM; in that of `Cn1ccc2c3cccc(O)c3nc-2c1` [Example 23, 8-hydroxy-2-methyl-β-carboline], 22000 nM; in that of `COc1ccc2c(c1)[nH]c1cnccc12` [Example 30, 7-methoxy-β - carboline], 5200 nM.

Consider `Fc1c(Cl)ccc2c1[nH]c1cnccc12` [Example 34, 7-chloro-8-fluoro-β - carboline], for which the IC50 at IκBα-kinase complex is 1000 nM. As to `COc1ccc2c(c1)[nH]c1c(C)nccc12` [Example 35, 7-methoxy-1-methyl-β - carboline], the half-maximal inhibitory concentration (IC50) on IκBα-kinase complex was 3500 nM. Consider `Oc1nccc2c1[nH]c1cc(C(F)(F)F)ccc12` [Example 41, 1-hydroxy-7-trifluoromethyl-β-carboline], for which the half-maximal inhibitory concentration (IC50) on IκBα-kinase complex was 2200 nM. Regarding `FC(F)(F)c1ccc2c(c1)[nH]c1cnccc12` [Example 42, 7-trifluoromethyl-β-carboline], at IκBα-kinase complex, the IC50 was 800 nM. `O=C(Nc1cc(Cl)cc2c1[nH]c1cnccc12)c1cccnc1` [Example 60, N-(6-Chloro-9H-β-carbolin-8-yl)-nicotinamide]: the graft survival in assay [1] stood at 20 ± 1 days.

The values above are taken from patent publication EP1209158A1, “Substituted beta-carbolines” (Aventis Pharma Deutschland GmbH, priority 2000, dated 2002).
